Measurements from patent US20150344457A1, “METHODS OF INHIBITING PRMT5” (EPIZYME, INC., priority 2012, published 2015).
Like-named read-outs stand apart in the source and are kept apart here.

Target: T1, PRMT5/MEP50 (Homo sapiens, UniProt O14744)
T1 construct: Expressed full-length human Flag-PRMT5/6His-MeP50 protein complex was purified; made in house; host or cells: Spodoptera frugiperda (SF9) insect cells, baculovirus (pDEST8)
Assay: PRMT5 Biochemical Assay (PRMT5/MEP50 enzyme assay on peptide substrate, 3H-SAM Flashplate)
Conditions: PRMT5/MEP50 4 nM, 3H-SAM 75 nM, peptide 40 nM, read-out: Biochemical IC50
Description: S-adenosylmethionine (SAM), S-adenosylhomocysteine (SAH), bicine, KCl, Tween20, dimethylsulfoxide (DMSO), bovine skin gelatin (BSG), and Tris(2-carboxyethyl)phosphine hydrochloride solution (TCEP) were purchased from Sigma-Aldrich at the highest level of purity possible. ^3H-SAM was purchase from American Radiolabeled Chemicals with a specific activity of 80 Ci/mmol 384-well streptavidin Flashplates were purchased from PerkinElmer.
Peptide representative of human histone H4 residues 1-15 was synthesized with a C-terminal linker-affinity tag motif and a C-terminal amide cap by 21st Century Biochemicals. […] The sequence was Ac-[…][K-Biot]-amide (SEQ ID NO.:3).
Full-length human MEP50 (NM_024102) clone was amplified from a human testis cDNA library incorporating a 5′ sequence encoding a 6-histidine tag (MHHHHHH) (SEQ ID NO.:5) fused directly to Arg 2 of MEP50. The amplified genes were sublconed into pENTR/D/TEV (Life Technologies) and subsequently transferred by Gateway™ attL×attR recombination to pDEST8 baculvirus expression vector (Life Technologies).
Recombinant baculovirus and Baculovirus-Infected Insect Cells (BIIC) were generated according to Bac-to-Bac kit instructions (Life Technologies) and Wasilko, 2006, respectively. Protein over-expression was accomplished by infecting exponentially growing Spodoptera frugiperda (SF9) cell culture at 1.2×10^6 cell/ml with a 5000 fold dilution of BIIC stock. Infections were carried out at 27° C. for 72 hours, harvested by centrifugation, and stored at −80° C. for purification.
Flag-PRMT5/6His-MeP50 was eluted with 300 mM Imidazole in the same buffer. […] Reference: Wasilko, D. J. and S. E. Lee: “TIPS: titerless infected-cells preservation and scale-up” Bioprocess J., 5 (2006), pp. 29-32.
General Procedure for PRMT5/MEP50 Enzyme Assays on Peptide Substrates.
The assays were all performed in a buffer consisting of 20 mM Bicine (pH=7.6), 1 mM TCEP, 0.005% BSG, and 0.002% Tween20, prepared on the day of use. Compounds in 100% DMSO (1 ul) were spotted into a polypropylene 384-well V-bottom plates (Greiner) using a Platemate Plus outfitted with a 384-channel head (Thermo Scientific). DMSO (1 ul) was added to Columns 11, 12, 23, 24, rows A-H for the maximum signal control and 1 ul of SAH, a known product and inhibitor of PRMT5/MEP50, was added to columns 11, 12, 23, 24, rows I-P for the minimum signal control. A cocktail (40 ul) containing the PRMT5/MEP50 enzyme and the peptide was added by Multidrop Combi (Thermo-Fisher). The compounds were allowed to incubate with PRMT5/MEP50 for 30 min at 25 degrees Celsius, then a cocktail (10 ul) containing ^3H-SAM was added to initiate the reaction (final volume=51 ul). The final concentrations of the components were as follows: PRMT5/MEP50 was 4 nM, ^3H-SAM was 75 nM, peptide was 40 nM, SAH in the minimum signal control wells was 100 uM, and the DMSO concentration was 1%. The assays were stopped by the addition of non-radioactive SAM (10 ul) to a final concentration of 600 uM, which dilutes the ^3H-SAM to a level where its incorporation into the peptide substrate is no longer detectable. 50 ul of the reaction in the 384-well polypropylene plate was then transferred to a 384-well Flashplate and the biotinylated peptides were allowed to bind to the streptavidin surface for at least 1 hour before being washed three times with 0.1% Tween20 in a Biotek ELx405 plate washer. The plates were then read in a PerkinElmer TopCount plate reader to measure the quantity of ^3H-labeled peptide bound to the Flashplate surface, measured as disintegrations per minute (dpm) or alternatively, referred to as counts per minute (cpm).
where dpm=disintegrations per minute, cmpd=signal in assay well, and min and max are the respective minimum and maximum signal controls.
where top and bottom are the normally allowed to float, but may be fixed at 100 or 0 respectively in a 3-parameter fit.

T1 sequence (O14744 with tags, fused parts or gaps): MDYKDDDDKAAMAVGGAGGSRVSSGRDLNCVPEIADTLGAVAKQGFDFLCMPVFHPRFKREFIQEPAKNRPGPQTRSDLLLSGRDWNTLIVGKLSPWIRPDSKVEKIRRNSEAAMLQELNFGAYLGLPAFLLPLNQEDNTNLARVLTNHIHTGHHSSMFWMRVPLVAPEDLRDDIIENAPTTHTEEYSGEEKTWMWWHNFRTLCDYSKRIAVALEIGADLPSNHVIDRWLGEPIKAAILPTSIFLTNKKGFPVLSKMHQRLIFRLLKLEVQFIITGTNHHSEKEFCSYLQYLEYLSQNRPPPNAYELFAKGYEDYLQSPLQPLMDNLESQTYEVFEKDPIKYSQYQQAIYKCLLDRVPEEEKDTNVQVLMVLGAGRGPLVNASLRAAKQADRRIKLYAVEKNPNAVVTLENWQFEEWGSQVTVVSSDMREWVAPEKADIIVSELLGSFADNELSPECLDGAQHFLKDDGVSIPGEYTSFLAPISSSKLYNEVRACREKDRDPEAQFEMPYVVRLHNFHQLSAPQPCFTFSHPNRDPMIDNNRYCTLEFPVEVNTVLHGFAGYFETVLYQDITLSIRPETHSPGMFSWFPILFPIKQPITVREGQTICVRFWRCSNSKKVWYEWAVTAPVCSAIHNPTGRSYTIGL
T1 sequence (Q9BQA1 with tags, fused parts or gaps partner limits assumed): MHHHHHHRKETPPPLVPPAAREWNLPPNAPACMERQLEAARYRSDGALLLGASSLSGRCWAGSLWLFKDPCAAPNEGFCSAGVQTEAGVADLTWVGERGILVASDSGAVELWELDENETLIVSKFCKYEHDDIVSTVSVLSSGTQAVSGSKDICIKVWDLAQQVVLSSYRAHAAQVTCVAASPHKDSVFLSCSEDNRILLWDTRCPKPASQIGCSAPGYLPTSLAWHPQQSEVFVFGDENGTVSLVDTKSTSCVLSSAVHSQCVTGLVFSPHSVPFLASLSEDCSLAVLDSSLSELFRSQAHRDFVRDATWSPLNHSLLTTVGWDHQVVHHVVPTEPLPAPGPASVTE

Row | SMILES | IC50 (Table A-2) [nM] | IC50 (Table B-2) [nM]
1 | O=C(CCc1ccccc1)NCC(O)CN1CCc2ccccc2C1 (stereo not shown) [Compound A2] | 1000 to 10000 | –
2 | CN(CC(O)CN1CCc2ccccc2C1)C(=O)CCc1ccccc1 (stereo not shown) [Compound A3] | 1000 to 10000 | –
3 | O=C(COc1cccc2c1CCCN2Cc1ccccc1)NCC(O)CN1CCc2ccccc2C1 (stereo not shown) [Compound A4] | < 100 | –
4 | CN(CC(O)CN1CCc2ccccc2C1)C(=O)COc1ccccc1 (stereo not shown) [Compound A5] | 10000 to 50000 | –
5 | O=C(COc1ccc(F)cc1)NCC(O)CN1CCc2ccccc2C1 (stereo not shown) [Compound A10] | 1000 to 10000 | –
6 | NC(=O)c1ccc(OCC(=O)NCC(O)CN2CCc3ccccc3C2)cc1 (stereo not shown) [Compound A13] | 1000 to 10000 | –
7 | CS(=O)(=O)c1ccc(OCC(=O)NCC(O)CN2CCc3ccccc3C2)cc1 (stereo not shown) [Compound A14] | 1000 to 10000 | –
8 | O=C(COC1CCCCC1)NCC(O)CN1CCc2ccccc2C1 (stereo not shown) [Compound A24] | 101 to 1000 | –
9 | CC(C)(Oc1ccccc1)C(=O)NCC(O)CN1CCc2ccccc2C1 (stereo not shown) [Compound A25] | 101 to 1000 | –
10 | O=C(COc1ccccc1)NC[C@@H](O)CN1CCc2ccccc2C1 [Compound A33] | 1000 to 10000 | –
11 | O=C(COC1CCOCC1)NCC(O)CN1CCc2ccccc2C1 (stereo not shown) [Compound A41] | 1000 to 10000 | –
12 | O=C(Cc1ccncc1)NCC(O)CN1CCc2ccccc2C1 (stereo not shown) [Compound A51] | 10000 to 50000 | –
13 | NS(=O)(=O)c1ccc(OCC(=O)NCC(O)CN2CCc3ccccc3C2)cc1 (stereo not shown) [Compound A52] | 1000 to 10000 | –
14 | O=C(Cc1ccccc1)NC[C@H](O)CN1CCc2ccccc2C1 [Compound A55] | 101 to 1000 | –
15 | O=C(CC1CCCCC1)NC[C@H](O)CN1CCc2ccccc2C1 [Compound A56] | 1000 to 10000 | –
16 | O=C(Cc1ccccc1)NC[C@@H](O)CN1CCc2ccccc2C1 [Compound A57] | 10000 to 50000 | –
17 | O=C(CC1CCCCC1)NC[C@@H](O)CN1CCc2ccccc2C1 [Compound A58] | 10000 to 50000 | –
18 | C[C@H](Oc1cccc2cccnc12)C(=O)NC[C@@H](O)CN1CCc2ccccc2C1 [Compound A72] | 1000 to 10000 | –
19 | O=C(COc1ccccc1OCCN1CCOCC1)NC[C@@H](O)CN1CCc2ccccc2C1 [Compound A87] | 1000 to 10000 | –
20 | O=C(COc1ccccc1-c1c[nH]cn1)NCC(O)CN1CCc2ccccc2C1 (stereo not shown) [Compound A115] | 10000 to 50000 | –
21 | O=C(COc1cccc(NC2CCOCC2)n1)NCC(O)CN1CCc2ccccc2C1 (stereo not shown) [Compound A121] | 1000 to 10000 | –
22 | O=C(COc1cccc2[nH]c(=O)cnc12)NCC(O)CN1CCc2ccccc2C1 (stereo not shown) [Compound A125] | 1000 to 10000 | –

Row | SMILES | IC50 (Table A-2) [nM] | IC50 (Table B-2) [nM]
23 | CC(Oc1ccccc1S(N)(=O)=O)C(=O)NCC(O)CN1CCc2ccccc2C1 (stereo not shown) [Compound A126] | > 50000 | –
24 | CC(=O)Nc1cccnc1OCC(=O)NCC(O)CN1CCc2ccccc2C1 (stereo not shown) [Compound A128] | > 50000 | –
25 | NS(=O)(=O)c1cccc(OCC(=O)NCC(O)CN2CCc3ccccc3C2)c1 (stereo not shown) [Compound A131] | 1000 to 10000 | –
26 | O=C(COc1ccccc1C1CNC1)NCC(O)CN1CCc2ccccc2C1 (stereo not shown) [Compound A132] | 1000 to 10000 | –
27 | CN(C)c1cccnc1OCC(=O)NCC(O)CN1CCc2ccccc2C1 (stereo not shown) [Compound A133] | > 10000 | –
28 | CN1CC(c2ccccc2OCC(=O)NCC(O)CN2CCc3ccccc3C2)C1 (stereo not shown) [Compound A135] | 1000 to 10000 | –
29 | CN1CCC(c2ccccc2OCC(=O)NCC(O)CN2CCc3ccccc3C2)C1 (stereo not shown) [Compound A136] | 1000 to 10000 | –
30 | CS(=O)(=O)Nc1ncccc1OCC(=O)NCC(O)CN1CCc2ccccc2C1 (stereo not shown) [Compound A139] | > 10000 | –
31 | CS(=O)(=O)Nc1cccnc1OCC(=O)NCC(O)CN1CCc2ccccc2C1 (stereo not shown) [Compound A140] | 1000 to 10000 | –
32 | CC(C)(C)OC(=O)Nc1ccccc1OCC(=O)NCC(O)CN1CCc2ccccc2C1 (stereo not shown) [Compound A141] | 1000 to 10000 | –
33 | CN(C)c1cncc(OCC(=O)NCC(O)CN2CCc3ccccc3C2)c1 (stereo not shown) [Compound A143] | 1000 to 10000 | –
34 | O=C(COc1cccc2cccnc12)NCC(O)CN1Cc2ccccc2C(F)(F)C1 (stereo not shown) [Compound A144] | > 10000 | –
35 | Nc1ncccc1OCC(=O)NCC(O)CN1CCc2ccccc2C1 (stereo not shown) [Compound A145] | 1000 to 10000 | –
36 | CC(=O)Nc1ncccc1OCC(=O)NCC(O)CN1CCc2ccccc2C1 (stereo not shown) [Compound A147] | > 10000 | –
37 | CC(=O)Nc1cncc(OCC(=O)NCC(O)CN2CCc3ccccc3C2)c1 (stereo not shown) [Compound A148] | > 10000 | –
38 | O=C(COc1cccc2c1CCCN2)NCC(O)CN1CCc2ccccc2C1 (stereo not shown) [Compound A150] | 101 to 1000 | –
39 | CN1CCCc2c(OCC(=O)NCC(O)CN3CCc4ccccc4C3)cccc21 (stereo not shown) [Compound A151] | 101 to 1000 | –
40 | O=C(COCc1cccnc1)NCC(O)CN1CCc2ccccc2C1 (stereo not shown) [Compound A152] | 1000 to 10000 | –
41 | O=C(NCC(O)CN1CCc2ccccc2C1)c1cccc(-c2ccccn2)c1 (stereo not shown) [Compound B1.] | – | < 100
42 | Cn1nccc1-c1cccc(C(=O)NCC(O)CN2CCc3ccccc3C2)c1 (stereo not shown) [Compound B2.] | – | < 100
43 | O=C(NC[C@H](O)CN1CCc2ccccc2C1)c1ccccc1 [Compound B3.] | – | < 100
44 | O=C(NCC(O)CN1CCc2ccccc2C1)c1cccc(-c2cccnc2)c1 (stereo not shown) [Compound B8.] | – | < 100

Row | SMILES | IC50 (Table A-2) [nM] | IC50 (Table B-2) [nM]
45 | O=C(NCC(O)CN1CCc2ccccc2C1)c1cccc(-c2ccncc2)c1 (stereo not shown) [Compound B9.] | – | < 100
46 | O=C(NCC(O)CN1CCc2ccccc2C1)c1cccc(-c2cc[nH]n2)c1 (stereo not shown) [Compound B10.] | – | < 100
47 | O=C(NC[C@@H](O)CN1CCc2ccccc2C1)Oc1ccccc1 [Compound B11.] | – | < 100
48 | O=C(NCC(O)CN1CCc2ccccc2C1)c1ccccc1-c1ccccn1 (stereo not shown) [Compound B12.] | – | 101 to 1000
49 | O=C(NCC(O)CN1CCc2ccccc2C1)c1ccc(-c2ccccn2)cc1 (stereo not shown) [Compound B13.] | – | < 100
50 | O=C(NCC(O)CN1CCc2ccccc2C1)c1cccc(N2CCOCC2)c1 (stereo not shown) [Compound B14.] | – | < 100
51 | O=C(NCC(O)CN1CCc2ccccc2C1)c1cccc(CNC2CCOCC2)c1 (stereo not shown) [Compound B15.] | – | < 100
52 | O=C(NCC(O)CN1CCc2ccccc2C1)c1cccc(NC2CCOCC2)c1 (stereo not shown) [Compound B16.] | – | < 100
53 | O=C(NCC(O)CN1CCc2ccccc2C1)c1ccccn1 (stereo not shown) [Compound B17.] | – | 101 to 1000
54 | O=C(NCC(O)CN1CCc2ccccc2C1)c1cccnc1 (stereo not shown) [Compound B18.] | – | 101 to 1000
55 | O=C(NC[C@@H](O)CN1CCc2ccccc2C1)c1cccc(-c2ccccn2)c1 [Compound B19.] | – | < 100
56 | O=C(NC[C@H](O)CN1CCc2ccccc2C1)c1cccc(-c2ccccn2)c1 [Compound B20.] | – | < 100
57 | NS(=O)(=O)c1ccc(C(=O)NCC(O)CN2CCc3ccccc3C2)cc1 (stereo not shown) [Compound B21.] | – | 101 to 1000
58 | NC(=O)c1ccc(C(=O)NCC(O)CN2CCc3ccccc3C2)cc1 (stereo not shown) [Compound B22.] | – | 101 to 1000
59 | CC(=O)Nc1ccc(C(=O)NCC(O)CN2CCc3ccccc3C2)cc1 (stereo not shown) [Compound B23.] | – | 101 to 1000
60 | CS(=O)(=O)Nc1cccc(C(=O)NCC(O)CN2CCc3ccccc3C2)c1 (stereo not shown) [Compound B24.] | – | < 100
61 | NC(=O)c1cccc(C(=O)NCC(O)CN2CCc3ccccc3C2)c1 (stereo not shown) [Compound B25.] | – | 101 to 1000
62 | CC(=O)Nc1cccc(C(=O)NCC(O)CN2CCc3ccccc3C2)c1 (stereo not shown) [Compound B26.] | – | 101 to 1000
63 | CS(=O)(=O)Nc1ccccc1C(=O)NCC(O)CN1CCc2ccccc2C1 (stereo not shown) [Compound B27.] | – | 1000 to 10000
64 | CN(C)CCOc1cccc(C(=O)NCC(O)CN2CCc3ccccc3C2)c1 (stereo not shown) [Compound B28.] | – | < 100
